Assay results reported in patent US12509482B2, “3′-ketoglycoside compound for the slow release of a volatile alcohol” (GLYCOSCIENCE, S.L., priority 2020, dated 2025).
Blank lines part the entries; values can stand above or below the compound they belong to.

Key:
Format in all cases: physicochemical
[1] = Example 22: competitive release of para-nitrophenol from an approximately equimolar solution of 4-nitrophenyl-O-β-D- and -O-α-D-3′-ketoglucopyranoside, 32° C., 1H NMR integrals
Source text: In this example the competitive rate of release of para-nitrophenol from an approximately equimolar solution of (2R,5S,6S)-3,5-dihydroxy-2-(hydroxymethyl)-6-(4-nitrophenoxy)tetrahydro-4H-pyran-4-one (4-nitrophenyl-O-β-D-3′-ketoglucopyranoside) and (2R,5S,6S)-3,5-dihydroxy-2-(hydroxymethyl)-6-(4-nitrophenoxy)tetrahydro-4H-pyran-4-one (4-nitrophenyl-O-α-D-3′-ketoglucopyranoside) in D2O containing 1.5% D6-DMSO or in 0.1 M deuterated phosphate buffer, pH 5.8 containing 1.5% D6-DMSO or in D2O was determined.
A solution containing approximately 2 mg each of 4-nitrophenyl-O-β-D-3′-ketoglucopyranoside and 4-nitrophenyl-O-α-D-3′-ketoglucopyranoside was prepared in 1 mL of D2O containing 3.3% v/v D6-DMSO. To two 0.375 mL portions of the resultant solution was added either D2O (0.5 mL) or 0.1M sodium phosphate buffer, pH 5.8 (0.5 mL) to given reactions 1 and 2 respectively. The resultant mixtures were analysed by ^1H NMR directly following preparation then incubated at 32° C./80 rpm and periodically analysed by ^1H NMR at recorded time points.
The change in the ratio between the integrals of the anomeric protons of each ketoglucoside and between the were sum of the anomeric protons and the anomeric protons of each ketoglucoside with time are shown in Table IX: […]

[2] = Example 25: release of geraniol from geranyl-O-β-D-2′-acetamido-2′-deoxy-3′-keto-glucopyranoside vs geranyl-β-2′-acetamido-2′-deoxy-glucopyranoside, 0.1 M deuterated phosphate buffer or D2O, 33% D6-DMSO, 32° C.; conditions: for stability / geraniol release (in words): 32° C.
Source text: In this example the rate of release of geraniol from N-((2R,3S,5R,6R)-2-(((E)-3,7-dimethylocta-2,6-dien-1-yl)oxy)-5-hydroxy-6-(hydroxymethyl)-4-oxotetrahydro-2H-pyran-3-yl)acetamide (geranyl-O-β-D-2′-acetamido-2′-deoxy-3′-keto-glucopyranoside) vs. N-((2R,3R,4R,5S,6R)-2-(((E)-3,7-dimethylocta-2,6-dien-1-yl)oxy)-4,5-dihydroxy-6-(hydroxymethyl)tetrahydro-2H-pyran-3-yl)acetamide (geranyl-R-2′-acetamido-2′-deoxy-glucopyranoside) in D2O containing 33% D6-DMSO or in 0.1 M deuterated phosphate buffer solutions of differing pH containing 33% D6-DMSO or in D2O was determined.
(§1) 0.1 M of pH 5.8 and 7.4 stock buffered solutions of sodium dihydrogen phosphate and disodium hydrogen phosphate were prepared in deuterated water (D2O).
A stock solution of 25 mg of geranyl-O-β-D-2′-acetamido-2′-deoxy-3′-keto-glucopyranoside in 1.0 mL of D6-DMSO were prepared.
To four parallel reaction vials, where indicated in the reaction table below, was added 0.20 mL of the glycoside substrate solutions in D6-DMSO and 0.40 mL of low or high pH 0.1M phosphate buffer in D2O and the mixtures incubated by shaking at 32° C. After times indicated in table below, the mixtures where analysed by ^1H-NMR in a 400 MHz instrument.

[3] = Example 24: release of geraniol from geranyl-3′-keto-2′-deoxyglucopyranoside vs 2′-deoxyglucopyranoside, 0.1 M deuterated phosphate buffer or D2O, 50% D6-DMSO, 32° C.
Description: In this example the rate of release of geraniol from (2R,3R)-6-(((E)-3,7-dimethylocta-2,6-dien-1-yl)oxy)-3-hydroxy-2-(hydroxymethyl)tetrahydro-4H-pyran-4-one in (geranyl-3′-keto-2′-deoxyglucopyranoside) 0.1 M deuterated phosphate buffer solutions of differing pH containing 50% D6-DMSO was determined.
as §1
A stock solution of 15 mg of geraniol-O-β-D-3′-keto-2′-deoxyglucopyranoside in 1.5 mL of D6-DMSO were prepared.
(§2) After times indicated in table below, the mixtures where analysed by ^1H-NMR in a 400 MHz instrument.

[4] = Example 23: release of methanol from methyl-O-α-D-3′-ketomannopyranoside vs methyl-O-α-D-mannopyranoside, 0.1 M deuterated phosphate buffer or D2O, 15% D6-DMSO, 32° C.
Description: In this example the rate of release of methanol from (2R,3R,5R,6S)-3,5-dihydroxy-2-(hydroxymethyl)-6-methoxytetrahydro-4H-pyran-4-one (methyl-O-α-D-3′-ketomannopyranoside) vs. (2R,3S,4S,5S,6S)-2-(hydroxymethyl)-6-methoxytetrahydro-2H-pyran-3,4,5-triol (methyl-O-α-D-mannopyranoside) in D2O containing 15% D6-DMSO or in 0.1 M deuterated phosphate buffer solutions of differing pH containing 15% D6-DMSO or in D2O was determined.
as §1
A stock solution of 25 mg of methyl-O-α-D-3′-ketoglucomannoside in 1.0 mL of D6-DMSO were prepared.
as §2

[5] = Reaction 2, 0.1M sodium phosphate buffer, pH 5.8, 0 h
[6] = Reaction 2, 0.1M sodium phosphate buffer, pH 5.8, 20 h
[7] = Reaction 2, 0.1M sodium phosphate buffer, pH 5.8, 45 h

ratio of the sum of aromatic/α-ketoglucoside proton integrals ([1]; Reaction 1, D2O, 0 h): 6.9 | ratio of α-/β-ketoglucoside proton integrals ([1]; Reaction 1, D2O, 0 h): 1.0 | ratio of the sum of aromatic/α-ketoglucoside proton integrals ([1]; Reaction 1, D2O, 20 h): 7.1 | ratio of α-/β-ketoglucoside proton integrals ([1]; Reaction 1, D2O, 20 h): 1.2 | ratio of the sum of aromatic/α-ketoglucoside proton integrals ([1]; Reaction 1, D2O, 45 h): 6.8 | ratio of α-/β-ketoglucoside proton integrals ([1]; Reaction 1, D2O, 45 h): 1.3 | ratio of α-/β-ketoglucoside proton integrals ([1]; Reaction 1, D2O, 72 h): 1.3 | ratio of the sum of aromatic/α-ketoglucoside proton integrals ([1]; Reaction 1, D2O, 143 h): 6.2 | ratio of the sum of aromatic/α-ketoglucoside proton integrals [1, 5]: 5.7 | ratio of α-/β-ketoglucoside proton integrals [1, 5]: 1.2 | ratio of the sum of aromatic/α-ketoglucoside proton integrals [1, 6]: 9.3 | ratio of α-/β-ketoglucoside proton integrals [1, 6]: 0.8 | ratio of the sum of aromatic/α-ketoglucoside proton integrals [1, 7]: 14.2 | ratio of α-/β-ketoglucoside proton integrals [1, 7]: 0.7 | ratio of α-/β-ketoglucoside proton integrals ([1]; Reaction 2, 0.1M sodium phosphate buffer, pH 5.8, 72 h): 0.35 | ratio of the sum of aromatic/α-ketoglucoside proton integrals ([1]; Reaction 2, 0.1M sodium phosphate buffer, pH 5.8, 143 h): 30.2
SMILES: O=C1[C@@H](O)[C@@H](Oc2ccc([N+](=O)[O-])cc2)O[C@H](CO)[C@H]1O

stability / geraniol release (in words) [2]: remains stable at pH 7.4 | % Conversion by 1H-NMR ([2]; pH 7.4, 0 h): 0% | % Conversion by 1H-NMR ([2]; pH 7.4, 1.5 h): 0% | % Conversion by 1H-NMR ([2]; pH 7.4, 22 h): 0% | % Conversion by 1H-NMR ([2]; pH 7.4, 48 h): 0% | % Conversion by 1H-NMR ([2]; pH 7.4, 216 h): 0%
SMILES: CC(=O)N[C@H]1[C@H](OC/C=C(\C)CCC=C(C)C)O[C@H](CO)[C@@H](O)[C@@H]1O [N-((2R,3R,4R,5S,6R)-2-(((E)-3,7-dimethylocta-2,6-dien-1-yl)oxy)-4,5-dihydroxy-6-(hydroxymethyl)tetrahydro-2H-pyran-3-yl)acetamide, reference compound]

% Conversion by 1H-NMR ([2]; D2O, 0 h): 0% | % Conversion by 1H-NMR ([2]; D2O, 1.5 h): 0% | % Conversion by 1H-NMR ([2]; D2O, 22 h): 0% | % Conversion by 1H-NMR ([2]; D2O, 48 h): 0% | % Conversion by 1H-NMR ([2]; D2O, 216 h): 0% | % Conversion by 1H-NMR ([2]; pH 5.8, 0 h): 0% | % Conversion by 1H-NMR ([2]; pH 5.8, 1.5 h): 5% | % Conversion by 1H-NMR ([2]; pH 5.8, 22 h): 25% | % Conversion by 1H-NMR ([2]; pH 5.8, 48 h): 32% | % Conversion by 1H-NMR ([2]; pH 5.8, 216 h): 39% | % Conversion by 1H-NMR ([2]; pH 7.4, 0 h): 0% | % Conversion by 1H-NMR ([2]; pH 7.4, 1.5 h): 5% | % Conversion by 1H-NMR ([2]; pH 7.4, 22 h): 88% | % Conversion by 1H-NMR ([2]; pH 7.4, 48 h): 100% | % Conversion by 1H-NMR ([2]; pH 7.4, 216 h): 100%
SMILES: CC(=O)N[C@@H]1C(=O)[C@H](O)[C@@H](CO)O[C@H]1OC/C=C(\C)CCC=C(C)C [N-((2R,3S,5R,6R)-2-(((E)-3,7-dimethylocta-2,6-dien-1-yl)oxy)-5-hydroxy-6-(hydroxymethyl)-4-oxotetrahydro-2H-pyran-3-yl)acetamide]
stability / geraniol release (in words) [2]: generates geraniol at both pH 5.8 and pH 7.4 | rate of geraniol release compared with other ketoglycosides (in words) ([2]; similar conditions): greater than observed from geranyl-3′-keto-2′-deoxyglucopyranoside (Example 25) or geranyl-O-β-D-3′-ketoglucopyranoside (Example 17) under similar conditions

% Conversion by 1H-NMR ([3]; D2O, 0 h): 0% | % Conversion by 1H-NMR ([3]; D2O, 1 h): 0% | % Conversion by 1H-NMR ([3]; D2O, 72 h): <5% | % Conversion by 1H-NMR ([3]; D2O, 144 h): <5% | % Conversion by 1H-NMR ([3]; pH 5.8, 0 h): 0% | % Conversion by 1H-NMR ([3]; pH 5.8, 1 h): 5% | % Conversion by 1H-NMR ([3]; pH 5.8, 72 h): 32% | % Conversion by 1H-NMR ([3]; pH 5.8, 144 h): 38% | % Conversion by 1H-NMR ([3]; pH 5.8, 288 h): 47% | % Conversion by 1H-NMR ([3]; pH 7.4, 0 h): 0% | % Conversion by 1H-NMR ([3]; pH 7.4, 1 h): 6% | % Conversion by 1H-NMR ([3]; pH 7.4, 72 h): 57% | % Conversion by 1H-NMR ([3]; pH 7.4, 144 h): 88% | % Conversion by 1H-NMR ([3]; pH 7.4, 288 h): 100%
SMILES: CC(C)=CCC/C(C)=C/CO[C@H]1CC(=O)[C@H](O)[C@@H](CO)O1 [geranyl-3′-keto-2′-deoxyglucopyranoside, (2R,3R)-6-(((E)-3,7-dimethylocta-2,6-dien-1-yl)oxy)-3-hydroxy-2-(hydroxymethyl)tetrahydro-4H-pyran-4-one]
stability / geraniol release (in words) ([3]; 32° C.): generates geraniol at both pH 5.8 and pH 7.4 | rate of geraniol release compared with other ketoglycosides (in words) ([3]; similar conditions): greater than observed from geranyl-O-β-D-3′-ketoglucopyranoside under similar conditions

stability / geraniol release (in words) [3]: remains stable at pH 7.4 | % Conversion by 1H-NMR ([3]; pH 7.4, 0 h): 0% | % Conversion by 1H-NMR ([3]; pH 7.4, 1 h): 0% | % Conversion by 1H-NMR ([3]; pH 7.4, 72 h): 0% | % Conversion by 1H-NMR ([3]; pH 7.4, 144 h): 0% | % Conversion by 1H-NMR ([3]; pH 7.4, 288 h): 0%
SMILES: CC(C)=CCC/C(C)=C/CO[C@H]1C[C@@H](O)[C@H](O)[C@@H](CO)O1 [geranyl-O-2′-deoxyglucopyranoside, geranyl 2′-deoxy-β-D-glucopyranoside, reference compound]

% Conversion by 1H-NMR ([4]; D2O, 0 h): 0% | % Conversion by 1H-NMR ([4]; D2O, 22 h): 0% | % Conversion by 1H-NMR ([4]; pH 5.8, 0 h): 0% | % Conversion by 1H-NMR ([4]; pH 5.8, 22 h): 71% | % Conversion by 1H-NMR ([4]; pH 5.8, 96 h): 78% | % Conversion by 1H-NMR ([4]; pH 5.8, 192 h): 78% | % Conversion by 1H-NMR ([4]; pH 7.4, 0 h): 0% | % Conversion by 1H-NMR ([4]; pH 7.4, 22 h): 54% | % Conversion by 1H-NMR ([4]; pH 7.4, 96 h): 74% | % Conversion by 1H-NMR ([4]; pH 7.4, 192 h): 88%
SMILES: CO[C@H]1O[C@H](CO)[C@@H](O)C(=O)[C@@H]1O [methyl-O-α-D-3′-ketomannopyranoside, (2R,3R,5R,6S)-3,5-dihydroxy-2-(hydroxy-methyl)-6-methoxytetrahydro-4H-pyran-4-one]
stability / methanol release (in words) ([4]; 4.2 mg/mL): generates methanol at both pH 5.8 and pH 7.4

SMILES: CO[C@H]1O[C@H](CO)[C@@H](O)[C@H](O)[C@@H]1O [methyl-O-α-D-mannopyranoside, (2R,3S,4S,5S,6S)-2-(hydroxymethyl)-6-methoxytetrahydro-2H-pyran-3,4,5-triol]
stability / methanol release (in words) ([4]; 32° C.): remains stable at pH 7.4 and in water | % Conversion by 1H-NMR ([4]; D2O, 0 h): 0% | % Conversion by 1H-NMR ([4]; D2O, 22 h): 0% | % Conversion by 1H-NMR ([4]; D2O, 96 h): 0% | % Conversion by 1H-NMR ([4]; pH 7.4, 0 h): 0% | % Conversion by 1H-NMR ([4]; pH 7.4, 22 h): 0% | % Conversion by 1H-NMR ([4]; pH 7.4, 96 h): 0% | % Conversion by 1H-NMR ([4]; pH 7.4, 192 h): 0%
